Experimental data from US20240083933A1, “DISACCHARIDES FOR TREATING BONE DISEASES” (UNIVERSITE DE PICARDIE JULES VERNE, priority 2020, published 2024).

Columns and labels:
[1] = Acetate migration DP2/DP2′ in solution (stability); type: physicochemical; conditions: in methanol
Method: The compound DP2′ was extracted from the DP2-DP2′ mixture which is formed when the compound DP2 is dissolved in water. The compound DP2′ has been separated by preparative HPLC chromatography with water as elution solvent.
The inventors have observed that when the compound DP2′ was in water, the delocalization of the acetate group was also present, but with very slow kinetics compared to the DP2→DP2′ reaction. Thus, a solution of DP2′ in water which is left to rest contains, after 44 days, 10 to 15% of DP2. The DP2′ therefore remains alone in the water for a given duration which is quite long. It is therefore possible to test the biological effect of DP2′ in solution in water.
Similarly, the inventors have observed that the kinetics of the DP2→DP2′ reaction is such that it is also possible to test the biological activity of the compound DP2 alone after extraction of the formed compound DP2′. Thus, the two compounds DP2 and DP2′ can coexist or not in water for a given duration.
In methanol, for example, the compound DP2 is therefore alone.
There is about ⅔ of DP2R2 for ⅓ of DP2′. The compound DP2′ comes from a migration of the acetate group (R2) on the 30H position. The compound DP2′ could be isolated and synthesized as previously indicated. […]

MC3T3-E1 cells = assay: Alkaline phosphatase (ALP) enzymatic activity assay, MC3T3-E1; type: cell-based, mouse; conditions: MC3T3-E1, 13 days post-treatment
Text: ALP is an enzyme synthesized by osteoblasts. It hydrolyses phosphoric esters which inhibit the mineralization by releasing a hydroxyl group and a phosphate. The osteoblasts produce matrix vesicles, reservoirs of alkaline phosphatases and ions, which, when released into the extracellular medium, would initiate the mineralization of the osteoid tissue by promoting the local concentrations of calcium ions and phosphates. Cells have been seeded in 6-well plates at 63700 cells/well for MC3T3-E1 and at 182000 cells/well for HOb.
After the PBS rinses, 50 μl of ALP Assay Buffer were added to the wells, the bottom of the wells was scraped and then the 50 μl were taken. A centrifugation for 3 minutes at 13000 G was carried out to remove the insoluble material. In a 96-well plate, 10 μl of each sample to be tested are placed with 70 μl of the ALP Assay buffer and 50 μl of the 5 mM pNPP solution. In parallel, the calibration range was prepared by placing, in the same 96-well plate. The reaction was incubated for 60 min at 25° C., shielded from light. The reaction was stopped by adding 20 μl of the Stop Solution. The optical density was measured at 405 nm.
After the ALP enzymatic activity assay, a protein assay was performed in order to normalize the results of the ALP assay depending on the number of proteins. […] The optical density was measured at 565 nm to determine the amount of proteins.

HOb cells = assay: Cytotoxicity, MTT test; type: cell-based, human; conditions: 30 μM, culture or mineralizing medium, D2, D4, D7, D14
Method: In order to study the toxicity of DP2, cell viability was determined using the MTT test (3-(4,5-dimethyl-2-thiazolyl)-2,5-diphenyl-2H-tetrazolium bromide). The HOb cells were seeded in 48-well plates (10,000 cells per well), two days later the cells were treated with DP2 30 μM and the MTT test was carried out on D2, D4, 7 and D14 post-treatment.
After washing the cells with DMEM (Dulbecco's Modified Eagle Medium) without phenol red, 250 μl of the diluted MTT solution were added to each well and the plate is incubated at 37° C. with 5% CO2 for 1 hour. The amount of MTT reduced in formazan is proportional to living cells. The purple formazan crystals were solubilized in 220 μl of DMSO and after stirring to homogenize the coloration, the absorbance was measured at 560 nm (Envision, PerkinElmer). The cytotoxicity was assessed by comparing the cell viability between the control group and the experimental group.
Before determining whether our molecule alters the survival of osteoblastic cells, its cytotoxicity was tested on the HOb cells by the MTT and WST-1 tests. The cells were treated with DP2 at 30 μM with the culture medium (Ctrl) or the mineralizing medium (Min) for 2, 4, 7 and 14 days (D).

Question: With `CCCO[C@H]1OC(CO)[C@@H](O[C@@H]2OC(CO)[C@@H](O)C(O)C2NC(C)=O)C(O)C1OC(C)=O` (stereo partly drawn) [DP2, n-propyl, 2-O-acetyl-α-D-Glucopyranoside, 4-O-(2-acetamido-2-deoxy-β-D-glucopyranosyl)] as the compound, how does the “delocalization of the acetate group” value [1] read?
Answer: no delocalization of the acetate group has been observed

Question: What about the “ALP enzymatic activity relative to the mineralized medium alone (100%)” value (MC3T3-E1 cells; 15 μM) of the same compound?
Answer: 118.907±10.466%

Question: What about the “ALP enzymatic activity relative to the mineralized medium alone (100%)” value (MC3T3-E1 cells; printed 15 μM (second mention)) of the same compound?
Answer: 148.833±15.761%

Question: And the “cell viability, MTT test” value (HOb cells)?
Answer: no significant difference
